According to patent US20140274919A1, “BORON-CONTAINING COMPOSITIONS AND METHODS THEREFOR” (VDF FutureCeuticals, Inc., priority 2011, published 2014):

Tests used:
Assay type in all cases: in vivo
adiponectin = test: Oral administration to human volunteers: blood concentration of adiponectin; details: samples at 30 minute intervals vs time 0, FIG. 2
Description: In this instance the effect of oral administration of CFB on the blood concentration of adiponectin, along with the effect of administration of sodium borate (Na borate), and a placebo compound was measured. Blood samples were taken at a time 0 prior to administration in order to establish a baseline concentration for each individual. Additional samples were taken at 30 minute intervals, and the concentration of adiponectin compared to the baseline level determined for each individual. […] The mechanism for this increase in adiponectin concentration in the blood is not known, but it is contemplated that it may due to increased synthesis, increased release of stored adiponectin, or a combination of these. Therefore, in some embodiments of the inventive subject matter blood concentrations of adiponectin may be increased by about 1%, 2%, 3%, 4%, 5%, 10%, 15%, 20%, 25%, 30%, or more relative to pretreatment values following administration of a boro-carbohydrate complex.
(§1) In all of the above oral administrations, the human volunteers were provided with orally administered single daily doses of 5-50 mg of calcium fructoborate for at least 14 days. […]

YKL-40 = test: Oral administration to human volunteers: YKL-40 in blood (Quidel immunoassay); details: samples after 7 and 14 days vs Day 0, FIG. 3
Description: In all of the above oral administrations, the human volunteers were provided with orally administered single daily doses of 5-50 mg of calcium fructoborate for at least 14 days. However, it should be noted that the orally administered compositions may vary considerably, so long as at least 0.1 mg, more typically at least 1.0 mg, and most typically at least 10-100 mg of the compound are administered to the human (or other mammal). Thus, typical administrations will provide 0.001-0.01 mg/kg, more typically 0.01-0.1 mg/kg, and most typically 0.1-5.0 mg/kg (and in some cases even higher) of the boro-carbohydrate compound per day. […]
In this instance the effect of the administration of CFB on the concentration of YKL-40 in the blood of human volunteers, along with the effect of administration of sodium borate (Na borate) and a placebo compound, was measured. […]
Additional samples were taken after 7 and 14 days of treatment, and the concentration of YKL-40 compared to the baseline level determined for each individual. YKL-40 was characterized using a commercially available immunoassay from Quidel (San Diego, Calif.) according to the manufacturer's directions, and the percentage change from pretreatment concentrations of YKL-40 were calculated. […]

C-reactive protein (CRP) = test: Oral administration to human volunteers: circulating C-reactive protein; details: FIG. 4
Description: In all of the above oral administrations, the human volunteers were provided with orally administered single daily doses of 5-50 mg of calcium fructoborate for at least 14 days. However, it should be noted that the orally administered compositions may vary considerably, so long as at least 0.1 mg, more typically at least 1.0 mg, and most typically at least 10-100 mg of the compound are administered to the human (or other mammal). Thus, typical administrations will provide 0.001-0.01 mg/kg, more typically 0.01-0.1 mg/kg, and most typically 0.1-5.0 mg/kg (and in some cases even higher) of the boro-carbohydrate compound per day. Such administration may be performed in numerous formats, and all types of formulations comprising contemplated compounds are deemed suitable for use herein, including as nutritional supplement, as ingredient in a snack (e.g., energy bar, fruit leather, etc.), a cereal, a beverage, etc.
Additionally, it is contemplated that compounds and compositions according to the inventive subject matter may influence various parameters associated with an inflammatory response, as YKL-40 has been proposed as a diagnostic marker for inflammation. […] Thus, it should be appreciated that contemplated compositions are especially advantageous in reduction of inflammatory markers and conditions associated with increased levels of such markers.

total osteocalcin = test: Oral administration to human volunteers: total osteocalcin in blood; details: data not shown
[1] = system: under-carboxylated osteocalcin; test: Oral administration to human volunteers: under-carboxylated osteocalcin in blood (Cusabio immunoassay); details: single daily doses of 5-50 mg, samples after 7 and 14 days vs day 0, FIG. 1
Description: In this instance the effect of administration of a CFB on the concentration of under-carboxylated osteocalcin in the blood of human volunteers, along with the effect of administration of sodium borate (Na borate) and a placebo compound was measured. Blood samples were taken at day 0 prior to administration in order to establish a baseline concentration for each individual. Additional samples were taken after 7 and 14 days of treatment. Under-carboxylated osteocalcin was characterized using a commercially available immunoassay from Cusabio Biotech Co. LTD (Newark, Del.) according to the manufacturer's directions, and the percentage change from pretreatment concentrations of under-carboxylated osteocalcin were calculated. […] In some embodiments of the inventive subject matter the percentage of under-carboxylated osteocalcin (including non-carboxylated osteocalcin) may thus be reduced by about 1%, 2%, 3%, 4%, 5%, 10%, 15%, 20%, 25%, 30%, 35%, 40%, 45%, 50% or more relative to pretreatment values following oral administration of CFB.
as §1

Compound	blood concentration of adiponectin compared to baseline (adiponectin)	concentration of YKL-40 in blood, percentage change from pretreatment (YKL-40)	concentration of circulating CRP (C-reactive protein (CRP))	effect on total osteocalcin (total osteocalcin)	concentration of under-carboxylated osteocalcin in blood, percentage change from pretreatment [1]
O.O.O.O.O.O.O.O.O.O.[Na+].[Na+].[O-]B1OB2OB([O-])OB(O1)O2 [sodium borate, reference compound]	similar, but markedly reduced, effect	–	–	–	–
calcium fructoborate [CFB]	rapid and sustained increase	significant reduction	substantially greater effect on reducing the concentration of CRP than sodium borate	no discernable effect	significant reduction
